Source: PubChem BioAssay (NCI)
Several values for one entry are separate records, joined by “and”; a condition that tells them apart may be missing. Equal values may be shown once.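 Test compounds were applied to cells in 96-well plates for 48 hours at 5 doses. GI50 = concentration required for 50% inhibition of growth. TGI denotes the concentration required for complete inhibition of growth.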

How the values were obtained:
Experiment in all cases: DTP human tumour cell line panel, 48 h
[1] = system: SF-539 CNS
[2] = system: LOX IMVI melanoma
[3] = system: SW-620 colon
[4] = system: MDA-MB-231 breast
[5] = system: A498 renal
[6] = system: U251 CNS
[7] = system: SF-295 CNS
[8] = system: OVCAR-3 ovarian
[9] = system: PC-3 prostate
[10] = system: SK-MEL-2 melanoma

Row | Structure (SMILES) | GI50 [1] [µM] | TGI [1] [µM] | GI50 [2] [µM] | TGI [2] [µM] | GI50 [3] [µM] | TGI [3] | GI50 [4] [µM] | TGI [4] [µM] | GI50 [5] | TGI [5] | GI50 [6] [µM] | TGI [6] [µM] | GI50 [7] [µM] | TGI [7] | GI50 [8] [µM] | TGI [8] | GI50 [9] [µM] | TGI [9] [µM] | GI50 [10] [µM] | TGI [10] [µM]
1 | O=[P@@]1(c2ccccc2)O[C@H](COCc2ccccc2)[C@@H](OCc2ccccc2)[C@H](OCc2ccccc2)[C@H]1NCc1ccccc1 | 4.74 | > 100 | 3.25 | 18.6 | 3.52 | > 100 µM | 3.22 | > 100 | 2.39 µM | 8.99 µM | 2.97 | > 100 | 2.05 | 6.68 µM | 3.17 | 19.3 µM | 3.03 | > 100 | 3.73 | > 100
2 | Nc1ccn(C2OC(CO)C(O)C2O)c(=O)n1 (stereo unspecified) | 16.8 | – | 0.829 | – | 0.847 | > 100 µM and 462 µM and > 500 µM | – | > 500 | 12 µM and 4.38 µM and 20.8 µM | > 100 µM and 424 µM | 0.635 | > 500 | 0.661 | > 100 µM and 417 µM and > 500 µM | 3.74 | > 100 µM and 500 µM and > 500 µM | > 46.3 | > 500 | – | > 500
3 | CCOC(=O)/C=C/c1ccc(C#Cc2ccccc2)cc1 | 1.54 | > 100 | > 100 | > 100 | > 100 | > 100 µM | > 100 | > 100 | 44.9 µM | > 100 µM | > 100 | > 100 | 55.1 | > 100 µM | > 100 | > 100 µM | > 100 | > 100 | > 100 | > 100
4 | COc1cc(/C=C/C(=O)c2cccc(-n3cc(-c4ccc(Cl)cc4)[nH]c3=O)c2)ccc1O | 1.86 | 4.05 | 1.64 | 4.03 | 2.3 | 7.71 µM | 3.46 | > 39.1 | 5.78 µM | 16.7 µM | 2.19 | 6.01 | 8.08 | 31.8 µM | 1.56 | 3.57 µM | 1.95 | 6.97 | 3.61 | 14.4
5 | CCc1c(Cl)c(C)cc(O)c1Cl | – | 78.9 | – | 51.7 | – | 47.9 µM | – | > 100 | – | 54.7 µM | – | 29 | – | > 100 µM | – | > 100 µM | – | 51.3 | – | 68.3
6 | COc1ccc(C2=C(c3ccc(OC)cc3)C(=O)N3CCCC3C2)cc1 (stereo unspecified) | 7.95 | 77.1 | 3.87 | 25.6 | 15.4 | > 100 µM | 25.4 | > 73.9 | 45.9 µM | > 100 µM | 5.99 | > 100 | 9.26 | > 100 µM | 11.7 | > 100 µM | 12.4 | > 100 | 18.3 | > 100
7 | Cc1nc2cc(Nc3nc(Nc4ccc(F)cc4)nc(-c4cccs4)n3)ccc2n1Cc1ccccc1 | 3.27 | 12.9 | 2.36 | 5.85 | 4.02 | 38.8 µM | 3.48 | 16.2 | 5.41 µM | 73.3 µM | 3.13 | 13.7 | 3.61 | 16.7 µM | 4.87 | 38.1 µM | 2.71 | 52.2 | 2.36 | 5.44
8 | CN(C)c1ccc(N=Nc2ccccn2)c(O)c1 | 0.355 | 8.44 | 0.258 | > 100 | 0.419 | > 100 µM | 0.446 | > 100 | 3.02 µM | 19.1 µM | 0.258 | > 100 | 0.359 | > 100 µM | 0.3 | > 100 µM | 0.416 | > 100 | 2.79 | > 100
9 | Cc1cc2cc3c(=O)[nH]c(=O)[nH]c3nc2cc1C | – | > 100 | – | > 100 | – | > 100 µM | – | > 100 | – | > 100 µM | – | > 100 | – | > 100 µM | – | > 100 µM | – | > 100 | – | > 100
10 | COc1cc(/C=C\c2cc(OC)c(OC)c(OC)c2)cc(N/C=C\C(=O)c2cc(OC)c(OC)c(OC)c2)c1OC | 1.92 | 4.51 | 3.54 | > 100 | 4.12 | > 100 µM | 4.01 | > 100 | 2.4 µM | 7.89 µM | 3.84 | > 100 | 2.4 | > 100 µM | 2.31 | 5.82 µM | 2.89 | > 100 | 4.54 | > 100
11 | COc1cc2c3c(c1OC)-c1cc4c(cc1CC3(C#N)N(C(=O)c1ccccc1)CC2)OCO4 (stereo unspecified) | – | 54.7 | – | > 93.6 | – | > 100 µM | – | > 100 | – | 82.3 µM | – | 53.5 | – | 58.7 µM | – | > 86.6 µM | – | > 100 | – | > 100
12 | CS(=O)(=O)Nc1cc(-c2ccc3ncnc(Nc4c(Cl)ccc5c4OCO5)c3c2)cnc1Cl | 0.208 | 0.988 | 0.172 | 1.08 | 0.327 | 2.99 µM | 0.246 | 2.35 | < 0.0135 µM | 0.127 µM | 0.331 | 2.63 | 0.171 | 1.1 µM | 0.127 | 0.925 µM | 0.178 | 1.77 | 0.232 | 1.04
